# In patent US6844321B2, “Crystallization of a GLP-1 analogue” (Novo Nordisk A/S, priority 2000, dated 2005):
# Assay: isoelectric point (pI) of the GLP-1 analogue
# Type: physicochemical
# Conditions: isoelectric point of the peptide, stated in the description
substance,measurement,value
Arg^34GLP-1(7-37),pI,about 5.4
